According to patent US20250179052A1, “PYRIMIDINYL-OXY-QUINOLINE BASED HERBICIDAL COMPOUNDS” (SYNGENTA CROP PROTECTION AG, priority 2022, published 2025):

Legend:
Conditions in all cases: 250 g/ha, evaluated after 13 days, five-point scale
[1] = tested on: Ipomoea hederacea (IPOHE); experiment: Pre-emergence herbicidal glasshouse test; assay type: in vivo
[2] = tested on: AMAPA; experiment: Pre-emergence herbicidal glasshouse test; assay type: in vivo, Amaranthus tuberculatus
[3] = tested on: Echinochloa crus-galli (ECHCG); experiment: Pre-emergence herbicidal glasshouse test; assay type: in vivo
[4] = tested on: Echinochloa crus-galli (ECHCG); experiment: Post-emergence herbicidal glasshouse test; assay type: in vivo
[5] = tested on: Amaranthus retoflexus (AMARE); experiment: Pre-emergence herbicidal glasshouse test; assay type: in vivo
[6] = tested on: AMAPA; experiment: Post-emergence herbicidal glasshouse test; assay type: in vivo, Amaranthus tuberculatus
[7] = tested on: Amaranthus retoflexus (AMARE); experiment: Post-emergence herbicidal glasshouse test; assay type: in vivo
[8] = tested on: Setaria faberi (SETFA); experiment: Post-emergence herbicidal glasshouse test; assay type: in vivo
[9] = tested on: Setaria faberi (SETFA); experiment: Pre-emergence herbicidal glasshouse test; assay type: in vivo
[10] = tested on: Ipomoea hederacea (IPOHE); experiment: Post-emergence herbicidal glasshouse test; assay type: in vivo

With `Cc1cc(C(F)(F)F)nc2cccc(Oc3ncc(Cl)cn3)c12` [Compound 1.021] the “percentage damage caused to the plant, IPOHE” value [1] was 1 (1=0-20%), the “percentage damage caused to the plant, AMAPA” value [2] was 1 (1=0-20%) and the “percentage damage caused to the plant, ECHCG” value [3] was 1 (1=0-20%). The “percentage damage caused to the plant, ECHCG” value [4] was 1 (1=0-20%), the “percentage damage caused to the plant, AMARE” value [5] was 1 (1=0-20%) and the “percentage damage caused to the plant, AMAPA” value [6] was 2 (2=21-40%). The “percentage damage caused to the plant, AMARE” value [7] was 3 (3=41-60%), the “percentage damage caused to the plant, SETFA” value [8] was 1 (1=0-20%) and the “percentage damage caused to the plant, SETFA” value [9] was 1 (1=0-20%). The “percentage damage caused to the plant, IPOHE” value [10] was 2 (2=21-40%).
With `CCOc1ncc2c(Oc3ncc(Cl)cn3)cccc2n1` [Compound 1.063, 5-(5-chloropyrimidin-2-yl)oxy-2-ethoxy-quinazoline] the “percentage damage caused to the plant, IPOHE” value [1] was 5 (5=81-100%), the “percentage damage caused to the plant, AMAPA” value [2] was 5 (5=81-100%) and the “percentage damage caused to the plant, ECHCG” value [3] was 5 (5=81-100%). The “percentage damage caused to the plant, ECHCG” value [4] was 5 (5=81-100%), the “percentage damage caused to the plant, AMARE” value [5] was 5 (5=81-100%) and the “percentage damage caused to the plant, AMAPA” value [6] was 5 (5=81-100%). For the same molecule, the “percentage damage caused to the plant, AMARE” value [7] was 5 (5=81-100%), the “percentage damage caused to the plant, SETFA” value [8] was 4 (4=61-80%) and the “percentage damage caused to the plant, SETFA” value [9] was 4 (4=61-80%). The “percentage damage caused to the plant, IPOHE” value [10] was 5 (5=81-100%).
In the case of `FC(F)(F)c1ncc2c(Oc3ncc(Cl)cn3)ccc(Br)c2n1` [Compound 1.071], the “percentage damage caused to the plant, IPOHE” value [1] is reported as 1 (1=0-20%), the “percentage damage caused to the plant, AMAPA” value [2] is reported as 5 (5=81-100%) and the “percentage damage caused to the plant, ECHCG” value [3] is reported as 3 (3=41-60%). For the same molecule, the “percentage damage caused to the plant, ECHCG” value [4] was 1 (1=0-20%), the “percentage damage caused to the plant, AMARE” value [5] was 3 (3=41-60%) and the “percentage damage caused to the plant, AMAPA” value [6] was 2 (2=21-40%). For the same molecule, the “percentage damage caused to the plant, AMARE” value [7] was 3 (3=41-60%), the “percentage damage caused to the plant, SETFA” value [8] was 1 (1=0-20%) and the “percentage damage caused to the plant, SETFA” value [9] was 4 (4=61-80%). For the same molecule, the “percentage damage caused to the plant, IPOHE” value [10] was 2 (2=21-40%).
In the case of `FC(F)(F)c1ccc2c(Oc3ncc(Cl)cn3)cccc2n1` [Compound 1.020, 5-(5-chloropyrimidin-2-yl)oxy-2 (trifluoromethyl)quinoline], the “percentage damage caused to the plant, IPOHE” value [1] is reported as 4 (4=61-80%), the “percentage damage caused to the plant, AMAPA” value [2] is reported as 5 (5=81-100%) and the “percentage damage caused to the plant, ECHCG” value [3] is reported as 5 (5=81-100%). The “percentage damage caused to the plant, ECHCG” value [4] was 4 (4=61-80%), the “percentage damage caused to the plant, AMARE” value [5] was 5 (5=81-100%) and the “percentage damage caused to the plant, AMAPA” value [6] was 5 (5=81-100%). The “percentage damage caused to the plant, AMARE” value [7] was 5 (5=81-100%), the “percentage damage caused to the plant, SETFA” value [8] was 5 (5=81-100%) and the “percentage damage caused to the plant, SETFA” value [9] was 5 (5=81-100%). The “percentage damage caused to the plant, IPOHE” value [10] was 4 (4=61-80%).
With `Cc1ccc(Oc2ncc(Br)cn2)c2cnc(C(F)(F)Cl)nc12` [Compound 1.047] the “percentage damage caused to the plant, IPOHE” value [1] was 1 (1=0-20%), the “percentage damage caused to the plant, AMAPA” value [2] was 2 (2=21-40%) and the “percentage damage caused to the plant, ECHCG” value [3] was 1 (1=0-20%). The “percentage damage caused to the plant, ECHCG” value [4] was 1 (1=0-20%), the “percentage damage caused to the plant, AMARE” value [5] was 2 (2=21-40%) and the “percentage damage caused to the plant, AMAPA” value [6] was 2 (2=21-40%). For the same molecule, the “percentage damage caused to the plant, AMARE” value [7] was 2 (2=21-40%), the “percentage damage caused to the plant, SETFA” value [8] was 1 (1=0-20%) and the “percentage damage caused to the plant, SETFA” value [9] was 1 (1=0-20%). The “percentage damage caused to the plant, IPOHE” value [10] was 2 (2=21-40%).
In the case of `FC(F)Oc1cnc(Oc2cccc3nc(C(F)(F)F)ncc23)nc1` [Compound 1.009], the “percentage damage caused to the plant, IPOHE” value [1] is reported as 1 (1=0-20%), the “percentage damage caused to the plant, AMAPA” value [2] is reported as 2 (2=21-40%) and the “percentage damage caused to the plant, ECHCG” value [3] is reported as 1 (1=0-20%). The “percentage damage caused to the plant, ECHCG” value [4] was 1 (1=0-20%), the “percentage damage caused to the plant, AMARE” value [5] was 1 (1=0-20%) and the “percentage damage caused to the plant, AMAPA” value [6] was 1 (1=0-20%). The “percentage damage caused to the plant, AMARE” value [7] was 1 (1=0-20%), the “percentage damage caused to the plant, SETFA” value [8] was 1 (1=0-20%) and the “percentage damage caused to the plant, SETFA” value [9] was 1 (1=0-20%). The “percentage damage caused to the plant, IPOHE” value [10] was 1 (1=0-20%).
